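All cell lines were grown in 96-well plates and treated with compound for 48 hours. The concentration for 50% growth inhibition is given as GI50.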 The source made the active and inactive calls. No stated cut-off is given here; in the data, active = GI50 up to about 1.1 µM and inactive = higher.
Tests used:
Assay in all cases: inhibition of tumour cell growth, NCI panel, 48 h
HOP-92 = test system: HOP-92
CCRF-CEM = test system: CCRF-CEM
NCI-H226 = test system: NCI-H226
RXF 393 = test system: RXF 393
BT-549 = test system: BT-549
SNB-75 = test system: SNB-75
A549 = test system: A549
EKVX = test system: EKVX
NCI/ADR-RES = test system: NCI/ADR-RES
CAKI-1 = test system: CAKI-1
LOX IMVI = test system: LOX IMVI
786-0 = test system: 786-0
NCI-H522 = test system: NCI-H522
MCF7 = test system: MCF7
K562 = test system: K562
IGROV-1 = test system: IGROV-1
UO-31 = test system: UO-31
SF-268 = test system: SF-268
OVCAR-3 = test system: OVCAR-3
SK-MEL-28 = test system: SK-MEL-28

Measured: GI50

CN(C)CCNc1ccc(CO)c2oc3ccc(O)cc3c(=O)c12
inactive: HOP-92 15.7 µM | CCRF-CEM 4.56 µM | NCI-H226 11.7 µM | RXF 393 12.6 µM | BT-549 14.6 µM | SNB-75 12.6 µM | A549 14.6 µM | EKVX 21.9 µM | NCI/ADR-RES 21.3 µM | CAKI-1 21.6 µM | LOX IMVI 11.5 µM | 786-0 8.61 µM | NCI-H522 4.32 µM | MCF7 4.83 µM | K562 10.2 µM | IGROV-1 19.1 µM | UO-31 10.5 µM | SF-268 9.31 µM | OVCAR-3 16.5 µM | SK-MEL-28 16.9 µM

O=C1C(/C=C/c2ccc(Cl)cc2)=NNC2N1N=C1NC(=O)C3(NN12)c1ccccc1-c1ccccc13 (stereo not given)
inactive: HOP-92 41.9 µM | CCRF-CEM 65.6 µM | NCI-H226 > 100 µM | RXF 393 > 100 µM | BT-549 > 100 µM | SNB-75 > 100 µM | A549 > 100 µM | EKVX 38.5 µM | NCI/ADR-RES > 100 µM | CAKI-1 > 100 µM | LOX IMVI > 100 µM | 786-0 > 100 µM | NCI-H522 > 100 µM | MCF7 26.5 µM | K562 35.4 µM | IGROV-1 > 100 µM | UO-31 94 µM | SF-268 > 100 µM | OVCAR-3 > 100 µM | SK-MEL-28 > 100 µM

N#Cc1c(N)nc(SCc2ccccc2)c(C#N)c1-c1ccc(O)cc1
inactive: HOP-92 6.97 µM | CCRF-CEM 13.4 µM | NCI-H226 22.4 µM | RXF 393 15.9 µM | BT-549 11.6 µM | SNB-75 16.8 µM | A549 11.7 µM | EKVX 9.44 µM | NCI/ADR-RES 15.7 µM | CAKI-1 13.5 µM | LOX IMVI 16.6 µM | 786-0 14 µM | NCI-H522 12.6 µM | MCF7 13.9 µM | K562 11 µM | IGROV-1 11 µM | UO-31 1.81 µM | SF-268 18.9 µM | OVCAR-3 14.6 µM | SK-MEL-28 13.4 µM

CCCCCCCCCCCC(=O)N(CCCCCCCCCCC(=O)O)CC(O)C(O)C(OC1OC(CO)C(O)C(O)C1O)C(O)CO (stereo not given)
inactive: HOP-92 > 100 µM | CCRF-CEM > 100 µM | NCI-H226 > 100 µM | RXF 393 > 100 µM | BT-549 > 100 µM | SNB-75 > 100 µM | A549 > 100 µM | EKVX > 100 µM | NCI/ADR-RES > 100 µM | CAKI-1 > 100 µM | LOX IMVI > 100 µM | 786-0 > 100 µM | NCI-H522 > 100 µM | MCF7 > 100 µM | K562 95.1 µM | IGROV-1 > 100 µM | UO-31 > 100 µM | SF-268 > 100 µM | OVCAR-3 > 100 µM | SK-MEL-28 > 100 µM

Source: ChEMBL document CHEMBL1201862, “PubChem BioAssay data set” (2004)
